Assay results reported in PMC11858854, “In Vitro and In Vivo Assessment of Pharmacokinetic Profile of Peramivir in the Context of Inhalation Therapy” (Pharmaceuticals, 2025).

Tests used:
[1] = system: NCI-H441/dTHP co-culture model; assay: Bidirectional transport, NCI-H441/dTHP co-culture model; assay type: in vitro ADME, human; conditions: for ER: NCI-H441/dTHP, 2 μM
Description: (§1) THP-1 cells were cultured in RPMI-1640 medium (Gibco, Thermo, CA, USA) supplemented with 10% FBS, PS (100 U/mL), and β-Mer (0.05 mM) at 37 °C in a humidified 5% CO2 incubator, and the medium was changed every other day. THP-1 cells were seeded at 4 × 10^5 cells/mL in six-well plates and induced for 48 h by adding medium containing a final concentration of 100 ng/mL PMA.
(§2) Then, the differentiated cells were seeded at 5 × 10^4 cells/well on the surface of NCI-H441 cells 10 days after air–liquid culture and continued to co-culture for 24 h.
(§3) We removed the liquid from the apical and basolateral of the Transwell, rinsed the cells three times with a buffer containing HBSS, 10 mM Hepes, and 0.1% BSA (Buffer A), and then added Buffer A (100 µL for the apical side and 600 µL for the basolateral side) for pre-incubation for 30 min at 37 °C. For the transport studies in the apical to basolateral (A-B) direction, 100 μL of pre-warmed test solution (Buffer A containing 2 µM positive control drugs or peramivir) was added to the apical side, while 600 μL of pre-warmed assay buffer, a buffer containing HBSS, 10 mM Hepes, and 1% BSA (Buffer B), was added to the basolateral compartment.

[2] = Permeability assay, LLC-PK1-MOCK cells; assay type: in vitro ADME; conditions: pig, LLC-PK1, 2 μM; for Papp A→B at 2 h, 2 µM / Papp B→A at 2 h, 2 µM: Mean ± SD, n = 3; for efflux ratio at 2 h, 2 µM: read-out: ER
Description: (§5) When the cell transport system was mature in culture, experiments were performed. […] When assessing permeability in basolateral to apical (B-A) direction, 100 μL of pre-warmed Buffer B and 600 μL of pre-warmed test solutions were added to the apical and basolateral compartments, respectively. The Transwells® were placed in an incubator at 37 °C and 5% CO2 for a duration of 2 h. At the end of the incubation period, the samples in the apical and basolateral sides were collected separately and were briefly kept at a temperature of −40 °C for LC-MS/MS analysis. […] The cells were transferred to Transwell® plates (Corning, NY, USA) at a density of 2 × 10^4 cells/well with 200 μL of cell suspension per well, while 850 μL of complete medium was added to the basolateral chamber. […] The samples were collected separately and were briefly kept at a temperature of −40 °C for LC-MS/MS analysis.

[3] = Bidirectional transport, Calu-3 air-liquid culture model; conditions: human
P-gp = assay: as above; conditions: human, with tariquidar 5 µM
P-gp (MDR1) = P-gp (MDR1) (Homo sapiens, UniProt P08183); assay: Permeability assay, LLC-PK1-MDR1 cells overexpressing P-gp; conditions: for Papp B→A at 2 h, 2 µM / efflux ratio at 2 h, 2 µM: human, LLC-PK1
Description: as §5

human MDR1 (P-gp) = human MDR1 (P-gp) (Homo sapiens, UniProt P08183); assay: as above; conditions: LLC-PK1-MDR1, 2 μM, Mean ± SD, n = 3
Description: as §5

NCI-H441 cell model = assay: Bidirectional transport, NCI-H441 air-liquid culture model; assay type: in vitro ADME, human
Description: (§4) NCI-H441 cells were cultured in RPMI-1640 medium (Gibco, Thermo, CA, USA) supplemented with 10% FBS and PS (100 U/mL) at 37 °C in a humidified 5% CO2 incubator, and the medium was changed every other day. […] Then, 850 μL of complete medium (containing 200 nM dexamethasone) was added to the basolateral chamber. […] Subsequently, an air-interfaced culture (AIC) was initiated by supplying 650 μL of culture medium to the basolateral chamber only. The culture medium was replaced every other day.
as §3

Calu-3 cell model = assay: Bidirectional transport, Calu-3 air-liquid culture model; conditions: Calu-3, about 14 days air–liquid interface
[4] = Bidirectional transport, NCI-H441 air-liquid culture model; assay type: in vitro ADME, human; conditions: human, NCI-H441, 2 μM; for Papp A→B at 2 h, 2 µM / Papp B→A at 2 h, 2 µM: Mean ± SD, n = 3
Description: as §4, §3

[5] = Bidirectional transport, NCI-H441/dTHP co-culture model; assay type: in vitro ADME, human; conditions: human; NCI-H441/dTHP, 2 μM, Mean ± SD, n = 3
Description: as §1, §2, §3

BCRP = assay: Bidirectional transport, NCI-H441 air-liquid culture model; assay type: in vitro ADME, human; conditions: human, with ko143 5 µM; NCI-H441, topotecan 2 μM with BCRP inhibitor ko143 (5 μM); read-out: ER value, inhibitor group
Description: as §4, §3

[6] = administered orally; cited from earlier work

P-gp (MDR1), sequence (P08183 whole entry): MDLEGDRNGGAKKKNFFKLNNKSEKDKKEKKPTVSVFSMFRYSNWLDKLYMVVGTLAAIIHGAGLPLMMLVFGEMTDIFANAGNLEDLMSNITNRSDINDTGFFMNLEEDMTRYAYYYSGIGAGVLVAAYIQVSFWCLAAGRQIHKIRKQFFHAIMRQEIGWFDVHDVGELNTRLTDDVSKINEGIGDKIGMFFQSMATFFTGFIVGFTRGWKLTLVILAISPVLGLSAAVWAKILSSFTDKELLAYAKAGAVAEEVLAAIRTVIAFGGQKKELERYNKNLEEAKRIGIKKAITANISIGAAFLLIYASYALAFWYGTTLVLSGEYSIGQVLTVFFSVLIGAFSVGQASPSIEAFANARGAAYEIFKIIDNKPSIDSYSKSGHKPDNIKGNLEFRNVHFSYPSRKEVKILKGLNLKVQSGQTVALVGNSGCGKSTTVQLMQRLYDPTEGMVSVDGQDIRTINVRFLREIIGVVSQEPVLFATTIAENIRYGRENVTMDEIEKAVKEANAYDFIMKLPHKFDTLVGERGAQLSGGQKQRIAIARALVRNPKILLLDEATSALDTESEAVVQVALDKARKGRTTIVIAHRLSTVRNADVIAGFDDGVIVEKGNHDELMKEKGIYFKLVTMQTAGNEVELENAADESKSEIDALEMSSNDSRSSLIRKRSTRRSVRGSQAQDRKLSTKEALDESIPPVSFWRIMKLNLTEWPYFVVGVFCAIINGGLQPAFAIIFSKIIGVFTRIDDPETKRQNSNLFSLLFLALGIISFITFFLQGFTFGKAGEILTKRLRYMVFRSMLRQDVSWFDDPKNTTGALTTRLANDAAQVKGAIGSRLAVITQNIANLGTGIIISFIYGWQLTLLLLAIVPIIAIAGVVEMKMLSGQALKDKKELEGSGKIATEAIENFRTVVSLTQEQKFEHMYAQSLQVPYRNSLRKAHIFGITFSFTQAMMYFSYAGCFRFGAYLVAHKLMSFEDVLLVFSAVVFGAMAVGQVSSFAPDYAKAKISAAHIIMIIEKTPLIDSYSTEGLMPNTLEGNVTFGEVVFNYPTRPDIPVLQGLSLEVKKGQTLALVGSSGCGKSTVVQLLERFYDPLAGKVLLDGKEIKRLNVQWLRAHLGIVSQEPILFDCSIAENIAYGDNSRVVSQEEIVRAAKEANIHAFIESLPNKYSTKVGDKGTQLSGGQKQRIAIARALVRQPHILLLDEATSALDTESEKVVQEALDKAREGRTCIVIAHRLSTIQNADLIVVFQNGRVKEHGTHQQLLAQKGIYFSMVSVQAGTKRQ
human MDR1 (P-gp), sequence (P08183 whole entry): as above

SMILES	ER [1]	Papp A→B at 2 h, 2 µM [2] [×10⁻⁶ cm/s]	Papp B→A at 2 h, 2 µM [2] [×10⁻⁶ cm/s]	efflux ratio at 2 h, 2 µM [2]	Papp A→B at 2 h, 2 µM [3] [×10⁻⁶ cm/s]	Papp B→A at 2 h, 2 µM [3] [×10⁻⁶ cm/s]	Papp B→A at 2 h, 2 µM (P-gp (MDR1)) [×10⁻⁶ cm/s]	efflux ratio at 2 h, 2 µM (P-gp (MDR1))	Papp A→B at 2 h, 2 µM [4] [×10⁻⁶ cm/s]	Papp B→A at 2 h, 2 µM [4] [×10⁻⁶ cm/s]	Papp A→B at 2 h, 2 µM [5] [×10⁻⁶ cm/s]	Papp B→A at 2 h, 2 µM [5] [×10⁻⁶ cm/s]	other results
CC(C)NCC(O)COc1ccc(CC(N)=O)cc1 (stereo not drawn) [Atenolol]	0.88	–	–	–	–	–	–	–	–	–	–	–	–
C[C@H]1O[C@@H](O[C@H]2[C@@H](O)C[C@H](O[C@H]3[C@@H](O)C[C@H](O[C@H]4CC[C@@]5(C)[C@H](CC[C@@H]6[C@@H]5C[C@@H](O)[C@]5(C)[C@@H](C7=CC(=O)OC7)CC[C@]65O)C4)O[C@@H]3C)O[C@@H]2C)C[C@H](O)[C@@H]1O [Digoxin]	–	1.64 ± 0.27	2.22 ± 0.36	1.35	0.66 ± 0.02	25.1 ± 7.18	9.76 ± 0.73	13.1	–	–	–	–	efflux ratio at 2 h, 2 µM (P-gp): ~1; Papp A-B (human MDR1 (P-gp)): 0.74 ± 0.15 ×10−6 cm/s
NNC(=O)NN1C(=O)c2cc(S(=O)(=O)[O-])cc3c(N)c(S(=O)(=O)[O-])cc(c23)C1=O.[K+].[K+] [Lucifer yellow CH dipotassium salt]	–	–	–	–	–	–	–	–	–	–	–	–	permeability value (barrier integrity) (NCI-H441 cell model; NCI-H441, about 7 days air–liquid interface): < 2 ×10⁻⁶ cm/s; permeability value (barrier integrity) ([1]; NCI-H441/dTHP co-culture 24 h): < 2 ×10⁻⁶ cm/s; permeability value (barrier integrity) (Calu-3 cell model): < 2 ×10⁻⁶ cm/s
CC(=O)N[C@H]1[C@H]([C@H](O)[C@H](O)CO)OC(C(=O)O)=C[C@@H]1N=C(N)N [zanamivir]	–	–	–	–	–	–	–	–	–	–	–	–	absolute bioavailability [6]: approximately 2%

The next lines start with results.

ER [1]	Papp A→B at 2 h, 2 µM [2] [×10⁻⁶ cm/s]	Papp B→A at 2 h, 2 µM [2] [×10⁻⁶ cm/s]	efflux ratio at 2 h, 2 µM [2]	Papp A→B at 2 h, 2 µM [3] [×10⁻⁶ cm/s]	Papp B→A at 2 h, 2 µM [3] [×10⁻⁶ cm/s]	Papp B→A at 2 h, 2 µM (P-gp (MDR1)) [×10⁻⁶ cm/s]	efflux ratio at 2 h, 2 µM (P-gp (MDR1))	Papp A→B at 2 h, 2 µM [4] [×10⁻⁶ cm/s]	Papp B→A at 2 h, 2 µM [4] [×10⁻⁶ cm/s]	Papp A→B at 2 h, 2 µM [5] [×10⁻⁶ cm/s]	Papp B→A at 2 h, 2 µM [5] [×10⁻⁶ cm/s]	SMILES	other results
0.90	28.5 ± 2.17	25.6 ± 3.71	0.9	29.8 ± 2.28	21.9 ± 3.73	23.1 ± 1.94	1.13	25.6 ± 5.45	23.4 ± 2.96	27.9 ± 7.99	24.36 ± 0.22	COCCc1ccc(OCC(O)CNC(C)C)cc1 (stereo not drawn) [Metoprolol]	ER (NCI-H441 cell model; NCI-H441, 2 μM): 0.91; efflux ratio at 2 h, 2 µM [3]: 29.8 ± 2.28; Papp A→B at 2 h, 2 µM (P-gp (MDR1)): 20.4 ± 1.24 ×10⁻⁶ cm/s
2.15	–	–	–	–	–	–	–	1.54 ± 0.12	3.47 ± 0.26	2.88 ± 0.55	6.18 ± 1.63	CC[C@@]1(O)C(=O)OCc2c1cc1n(c2=O)Cc2cc3c(CN(C)C)c(O)ccc3nc2-1 [Topotecan]	efflux ratio at 2 h, 2 µM ([4]; read-out: ER): 2.25; efflux ratio at 2 h, 2 µM (BCRP): ~1
